Tests used:
[1] = target: T1, BACE1 (Homo sapiens, UniProt P56817); test: BACE1 biochemical FRET based assay - Method 1 (Test Example 2-2); settings: 0.04 μg/mL BACE1, 450 minutes, Citrate buffer pH 5.0, read-out: BACE1 Biochemical FRET based assay - Method 1 PIC50 (converted)
Description: (§1) This assay is a Fluorescence Resonance Energy Transfer Assay (FRET) based assay. The substrate for this assay is an APP derived 13 amino acids peptide that contains the ‘Swedish’ Lys-Met/Asn-Leu mutation of the amyloid precursor protein (APP) beta-site secretase cleavage site. This substrate also contains two fluorophores: (7-methoxycoumarin-4-yl) acetic acid (Mca) is a fluorescent donor with excitation wavelength at 320 nm and emission at 405 nm and 2,4-dinitrophenol (Dnp) is a proprietary quencher acceptor. […] Upon cleavage by BACE1, the fluorophore Mca is separated from the quenching group Dnp, restoring the full fluorescence yield of the donor. The increase in fluorescence is linearly related to the rate of proteolysis.
(§2) Briefly in a 384-well format recombinant BACE1 protein in a final concentration of 0.04 μg/mL is incubated for 450 minutes at room temperature with […] substrate in incubation buffer (final concentrations: 33.3 mM Citrate buffer pH 5.0, 0.033% PEG, 3% DMSO) in the absence or presence of compound. Next the amount of proteolysis is directly measured by fluorescence measurement at T=0′-120′ and T=450′ (excitation at 320 nm and emission at 405 nm). Results are expressed in RFU (Relative Fluorescence Units), as difference between T450 and Tx (Tx is chosen depending on the reaction speed between 0 and 120 minutes.).
(§3) Data are analysed using Screener (Registered trademark) (Genedata, Switzerland). Data were normalized and % inhibition=100−[(sample−LC)/(HC−LC))*100], was plotted versus the log concentration of the test compound. Curves were analysed using non-linear regression analysis and IC50 values (inhibitory concentration causing 50% inhibition of activity) were derived from individual curves.
(§4) LC=Median of the low control values
(§5) =Low control: Reaction without enzyme
(§6) HC=Median of the High control values
(§7) =High Control: Reaction with enzyme
(§8) % Inhibition=100−[(sample−LC)/(HC−LC)*100]

[2] = target: T1, BACE1; test: BACE1 cellular αLisa assay in SKNBE2 cells, Abeta 1-42 (Test Example 2-3); type: cell-based; design: endogenous in cells; host or cells: SKNBE2 human neuroblastoma cells expressing hAPP695; settings: SKNBE2 cells expressing hAPP695, 18 hours incubation, read-out: Cellular αLisa assay in SKNBE2 cells Abeta 42 pIC50 (converted)
Description: In two αLisa assays the levels of Abeta 1-42 or Abeta total produced and secreted into the medium of human neuroblastoma SKNBE2 cells are quantified. The assays are based on the human neuroblastoma SKNBE2 expressing the wild type Amyloid Precursor Protein (hAPP695). The compounds are diluted and added to these cells, incubated for 18 hours and then measurements of Abeta 1-42 or Abeta total are taken. Abeta 1-42 or Abeta total are measured by sandwich αLisa using biotinylated antibody AbN/25 attached to streptavidin coated donor beads and antibody cAb42/26 or Ab 4G8 conjugated acceptor beads for the detection of Abeta 1-42 or Abeta total respectively. In the presence of Abeta 1-42 or Abeta total, the beads come into close proximity. The excitation of the donor beads provokes the release of singlet oxygen molecules that trigger a cascade of energy transfer in the acceptor beads, resulting in light emission. Light emission is measured after 1 h incubation (excitation at […] and emission at 615 nm).
as §3
LC=Median of the low control values • =Low control: Reaction without enzyme
HC=Median of the High control values • =High Control: Reaction with enzyme
as §8

[3] = target: T2, BACE2 (Homo sapiens, UniProt Q9Y5Z0); test: BACE2 biochemical FRET based assay (Test Example 2-4); settings: recombinant BACE2 0.4 μg/mL, 10 μM substrate, 450 minutes, pH 5.0; read-out: BACE2 Biochemical FRET based assay pIC50 (converted)
T2 sequence (Q9Y5Z0 63-518): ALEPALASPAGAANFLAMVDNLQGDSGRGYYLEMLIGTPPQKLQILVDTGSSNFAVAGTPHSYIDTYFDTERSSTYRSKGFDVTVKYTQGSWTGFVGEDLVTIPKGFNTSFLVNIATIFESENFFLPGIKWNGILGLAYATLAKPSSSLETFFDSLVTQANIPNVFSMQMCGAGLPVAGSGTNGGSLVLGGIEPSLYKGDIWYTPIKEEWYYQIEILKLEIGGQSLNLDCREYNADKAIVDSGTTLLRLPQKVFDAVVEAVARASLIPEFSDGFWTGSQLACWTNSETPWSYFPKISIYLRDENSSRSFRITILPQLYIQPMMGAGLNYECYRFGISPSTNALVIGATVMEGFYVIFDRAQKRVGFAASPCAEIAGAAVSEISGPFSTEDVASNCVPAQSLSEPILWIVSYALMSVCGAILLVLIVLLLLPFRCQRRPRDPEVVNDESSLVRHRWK
Description: as §1, with “assay” for “assay is an APP derived 13 amino acids peptide that”, “beta-secretase” for “beta-site secretase”, “the beta-secretase,” for “BACE1,”
Briefly in a 384-well format recombinant BACE2 protein in a final concentration of 0.4 μg/mL is incubated for 450 minutes at room temperature with 10 μM substrate in incubation buffer (final concentrations: 33.3 mM Citrate buffer pH 5.0, 0.033% PEG, 2% DMSO) in the absence or presence of compound. Next the amount of proteolysis is directly measured by fluorescence measurement at T=0 and T=450 (excitation at 320 nm and emission at 405 nm). Results are expressed in RFU (Relative Fluorescence Units), as difference between T450 and TO.
as §3, §4, §5, §6, §7, §8

[4] = target: T3, BACE2 (Mus musculus, UniProt Q9JL18); test: BACE2 cellular assay in MIN6 cells, secreted TMEM27 (Test Example 2-5); type: cell-based; settings: 24 hours incubation, secreted TMEM27 by MSD, read-out: Cellular MSD assay in Min6 cells TV1EV127 pIC50 (converted)
T3 construct: endogenous in cells; host or cells: MIN6 mouse insulinoma cells expressing Flag-V5-TMEM27-HA
T3 sequence (Q9JL18 63-514): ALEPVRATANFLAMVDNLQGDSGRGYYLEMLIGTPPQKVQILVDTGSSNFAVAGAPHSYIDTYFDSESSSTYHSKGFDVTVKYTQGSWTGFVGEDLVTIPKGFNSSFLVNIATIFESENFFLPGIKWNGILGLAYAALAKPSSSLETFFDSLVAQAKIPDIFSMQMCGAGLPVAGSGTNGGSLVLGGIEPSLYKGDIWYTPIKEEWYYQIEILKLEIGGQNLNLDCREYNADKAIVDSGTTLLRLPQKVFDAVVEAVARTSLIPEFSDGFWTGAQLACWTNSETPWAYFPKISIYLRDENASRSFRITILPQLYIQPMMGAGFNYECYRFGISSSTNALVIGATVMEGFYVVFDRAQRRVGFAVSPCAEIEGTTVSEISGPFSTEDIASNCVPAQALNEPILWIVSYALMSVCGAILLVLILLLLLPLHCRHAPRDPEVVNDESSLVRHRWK
Description: Cellular BACE2 activity was measured by determination of the level of secreted TMEM27 into the medium of MIN6 cells using an MSD platform. The assay is based on the mouse insulinoma MIN6 cells expressing Flag-V5-TMEM27-HA. When BACE2 cleaves TMEM27 the N-terminal part of TMEM27 with the V5-Flag tag will be shed into the medium, and the amount of this cleaved product is measured with the MSD assay.
Briefly in a 96-well format the cells are incubated for 24 hours in the presence of the compound followed by the measurement of secreted TMEM27 in the medium via MSD using FLAG-L5 coating antibody and a V5 detection antibody. When TMEM27 is captured on the electrode surface of the multi-array microplate the detection antibody, conjugated with the sulfo-Tag™, is in close proximity of the surface, it generates a light via a series of reduction and oxidation reactions. The intensity of the emitted light is measured with the MSD imager to provide a quantitative measure for the analytes in the sample.
as §3, §4, §5, §6, §7, §8

[5] = target: T2, BACE2; test: BACE2 biochemical FRET based assay (Test Example 2-1 (2)); settings: 0.4 μg/mL BACE2, 450 minutes, Citrate buffer pH 5.0
Description: This assay is a Fluorescence Resonance Energy Transfer Assay (FRET) based assay. The substrate for this assay contains the ‘Swedish’ Lys-Met/Asn-Leu mutation of the amyloid precursor protein (APP) beta-secretase cleavage site. This substrate also contains two fluorophores: (7-methoxycoumarin-4-yl) acetic acid (Mca) is a fluorescent donor with excitation wavelength at 320 nm and emission at 405 nm and 2,4-dinitrophenol (Dnp) is a proprietary quencher acceptor. […] Upon cleavage by the beta-secretase, the fluorophore Mca is separated from the quenching group Dnp, restoring the full fluorescence yield of the donor. The increase in fluorescence is linearly related to the rate of proteolysis. Briefly in a 384-well format recombinant BACE2 protein in a final concentration of 0.4 μg/mL was incubated for 450 minutes at room temperature with 10 μM substrate in incubation buffer (final concentrations: 33.3 mM Citrate buffer pH 5.0, 0.033% PEG, 2% DMSO) in the absence or presence of compound. Next the amount of proteolysis was directly measured by fluorescence measurement at T=0 and T=450 (excitation at 320 nm and emission at 405 nm). Results were expressed in RFU (Relative Fluorescence Units), as difference between T450 and TO.
A best-fit curve was fitted by a minimum sum of squares method to the plot of % Controlmin versus compound concentration. From this an IC50 value (inhibitory concentration causing 50% inhibition of activity) can be obtained.

[6] = target: T1, BACE1; test: BACE1 biochemical FRET based assay (Test Example 2-1); settings: for selectivity: BACE2 IC50 over BACE1 IC50 (FRET); for IC50: FRET, 0.04 μg/mL BACE1, 450 minutes, Citrate buffer pH 5.0
Description: as §1, §2
A best-fit curve is fitted by a minimum sum of squares method to the plot of % Controlmin versus compound concentration. From this an IC50 value (inhibitory concentration causing 50% inhibition of activity) can be obtained.

T1 sequence (P56817 46-501): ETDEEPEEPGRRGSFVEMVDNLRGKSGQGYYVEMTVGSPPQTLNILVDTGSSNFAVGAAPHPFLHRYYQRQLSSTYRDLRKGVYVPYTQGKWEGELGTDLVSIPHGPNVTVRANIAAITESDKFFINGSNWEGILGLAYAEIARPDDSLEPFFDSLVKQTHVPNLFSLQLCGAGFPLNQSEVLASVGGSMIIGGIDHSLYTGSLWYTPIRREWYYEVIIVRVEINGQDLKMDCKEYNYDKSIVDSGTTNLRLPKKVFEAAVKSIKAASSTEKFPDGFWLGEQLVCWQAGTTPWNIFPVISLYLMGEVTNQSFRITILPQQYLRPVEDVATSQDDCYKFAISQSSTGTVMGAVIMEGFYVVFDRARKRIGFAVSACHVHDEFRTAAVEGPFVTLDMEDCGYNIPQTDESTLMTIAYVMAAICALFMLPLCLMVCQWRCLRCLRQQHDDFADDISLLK

Row | SMILES | IC50 [1] | IC50 [2] | IC50 [3] | IC50 [4] | IC50 [5] | selectivity [6] | IC50 [6]
1 | C[C@@H]1COc2cc(C(=O)Nc3ccc(F)c([C@]4(C)CS(=O)(=O)N(C)C(N)=N4)c3)ncc2O1 [Compound I-010] |  |  |  |  | 135 nM | 19.5 | 6.9 nM
2 | CN1C(N)=N[C@](C)(c2cc(NC(=O)c3cc4c(cn3)OCC(F)(F)O4)ccc2F)CS1(=O)=O [Compound I-004] |  |  |  |  | 513 nM | 38.9 | 13.2 nM
3 | NC1=N[C@](CF)(c2cc(NC(=O)c3cc4c(cn3)OC[C@H](F)O4)ccc2F)[C@H]2COCC[C@H]2O1 [Compound I-037] |  |  |  |  | 5500 nM | 263 | 20.9 nM
4 | C[C@H]1COc2cc(C(=O)Nc3ccc(F)c([C@]4(C)CS(=O)(=O)N(C)C(N)=N4)c3)ncc2O1 [Compound I-008] |  |  |  |  | 219 nM | 22.9 | 9.6 nM
5 | CN1C(N)=N[C@](C)(c2cc(NC(=O)c3cc4c(cn3)O[C@H](F)CO4)ccc2F)CS1(=O)=O [Compound I-015] |  |  |  |  | 13.5 nM | 10.5 | 1.3 nM
6 | CN1C(N)=N[C@](C)(c2cc(NC(=O)c3cc4c(cn3)OC[C@H](F)O4)ccc2F)CS1(=O)=O [Compound I-007] |  |  |  |  | 61.7 nM | 28.8 | 2.1 nM
7 | [2H]C1([2H])Oc2cnc(C(=O)Nc3ccc(F)c([C@]4(C)CS(=O)(=O)N(C)C(N)=N4)c3)cc2OC1([2H])[2H] [Compound I-001] |  |  |  |  | 72 nM | 60.0 | 1.2 nM

Results, then the molecule that gave them:

Row | IC50 [1] | IC50 [2] | IC50 [3] | IC50 [4] | IC50 [5] | selectivity [6] | IC50 [6] | SMILES
8 | 3.24 nM | 3.31 nM | 155 nM | 295 nM |  |  |  | CCS(=O)(=O)C1(CF)CCC(C)(c2cc(NC(=O)c3cc4c(cn3)OC(F)(F)CO4)ccc2F)N=C1N (centres unmarked) [II-34]
9 | 5.37 nM | 9.77 nM | 295 nM | 617 nM |  |  |  | CCS(=O)(=O)[C@]1(CF)CC[C@@](C)(c2cc(NC(=O)c3cc4c(cn3)OC(F)(F)O4)ccc2F)N=C1N [II-35]
10 | 4.07 nM | 2.57 nM | 372 nM | 661 nM |  |  |  | [2H]C1([2H])Oc2cnc(C(=O)Nc3ccc(F)c(C4(CF)CCC(C)(S(C)(=O)=O)C(N)=N4)c3)c(F)c2OC1([2H])[2H] (centres unmarked) [II-12]
11 | 6.46 nM | 3.55 nM | 331 nM | 363 nM |  |  |  | CC1(S(C)(=O)=O)CCC(CF)(c2cc(NC(=O)c3cc4c(cn3)OCC(F)O4)ccc2F)N=C1N (centres unmarked) [II-11]
12 | 11.7 nM | 22.9 nM | 331 nM | 427 nM |  |  |  | Cc1c(C(=O)Nc2ccc(F)c(C3(CF)CCC(C)(S(C)(=O)=O)C(N)=N3)c2)ncc2c1OCC(F)(F)O2 (centres unmarked) [II-15]
